For assay [1], the system named is Swiss Webster fracture-bearing mice (fracture callus). Kind of assay: micro CT of the fracture callus in the femur fracture model. The class given is in vivo.
For assay [2], the system named is Swiss Webster fracture-bearing mice (healed femur). Briefly: postmortem 4 point bend of the healed femur. The class given is in vivo. The note with it: for Max load (peak load) / Work to fracture: n=5. From the text: All in vivo data included herein are from Swiss Webster mice. All mice received an osteotomy on their right femur and received subcutaneous drug administration daily for either 2,3 or 4 weeks, or 17 days, as indicated, for each compound. 1× concentration represents 1 nmol/day, 10× represents 10 nmol/day, 100× represents 100 nmol/day most studies have an n of 5.
The term “Peak Load” means a postmortem 4 point bend of the healed femur. Peak load represents the maximum force the healed femur withstood before it refractured.
The targeted conjugates were synthesized using standard Fmoc solid-phase peptide synthesis, as described above. To ensure the conjugates' activity, mouse pre-osteoblast ([…]) cells were treated with the targeted and untargeted compounds for three days at concentrations from 1 pM to 100 nM. After three days of treatment, the cells were harvested, and the RNA was purified from the cells. Expression levels of ALP, RUNx2 (transcription factor for osteoblast differentiation), osterix (OSX), osteopontin (OPN), collagen 1A (Col-1A), OPG, RANKL, sclerostin gene (SOST), and OC were quantified via quantitative reverse transcription polymerase chain reaction (RT-qPCR). Once the biological activity of the conjugates was confirmed, they were tested in vivo in a fracture model. Aseptic surgical techniques were used to place a 23-gage needle as in intramedullary nail in the femur of anesthetized, 12-week-old Swiss Webster mice for internal fixation before fracture. Femur fractures were induced using a drop weight fracture device from RISystem. The mice received buprenorphine for three days post fracture. The mice were dosed subcutaneously each day for three weeks or 17 days. Fracture healing was assessed using microCT (Scanco Medical Ag). Morphometric parameters were quantified in the 100 widest slices of the fracture callus. Trabecular thickness (Tb.Th.), trabecular spacing (Tb.Sp.), total volume (TV), and volume of calcified callus (BV) were calculated. Fractured femurs were tested for strength in a four-point bend to failure using an Electro Force TestBench (TA Instruments). Lower supports were 10 mm apart on the anterior face of the femur in contact with the proximal and distal diaphysis. Upper supports were 4 mm apart and spanned the entire fracture callus on the diaphysis. Force was applied from the posterior face of the femur with a displacement rate of 0.3 mm/sec. Peak load, yield load, stiffness, displacement post yield, work to fracture, and deformation data were generated. Statistical analysis was performed using a two-way analysis of variance (ANOVA) and a Tukey post-hoc analysis with significance reported at the 95% confidence level. All animal experiments were performed in accordance with protocols approved by Purdue University's Institutional Animal Care and Use Committee (IACUC).

Where [3] appears, read: 17 days, 0.1, 1 and 10 nmol daily s.c., n=5.
Where [4] appears, read: 17 days, 0.1, 1 and 10 nmol daily s.c.
Where [5] appears, read: 2 weeks, 1, 10 and 100 nmol/day.
Setting [6] is: 4 weeks, 1, 10 and 100 nmol/day.
The mark [7] stands for this setting: 17 days, 1, 10 and 100 nmol daily s.c., n=5.
Setting [8] is: 17 days, 1, 10 and 100 nmol daily s.c.
[9] abbreviates: 3 weeks, 0.1, 1 and 10 nmol daily s.c.
[10] abbreviates: 3 weeks, 1, 10 and 100 nmol daily s.c., n=5.
The mark [11] stands for this setting: 3 weeks, 1, 10 and 100 nmol daily s.c.

Bridges are numbered along the chain shown (N, C = ends). Primed or numbered codes have the meaning given here. Where no end group is shown, it is not given here. [ ]: non-standard residue; d: D form. mp4″ = 4 mini PEG linker (mini-PEG spacer); PEG10′ = polyethylene glycol 10 linker; minipeg = minipeg spacer; Dap = NC[C@H](N)C(=O)O

On to “ODP D10: SEQ ID NO: 13, Osteopontin-derived peptide conjugated with 10 aspartate acids (DDDDDDDDDD[mp4″]DVDVPDGRGDSLAYG)”, for which the BV/TV entry in assay [1] (4 weeks, 1 nmol/day) was “healing was reflected as BV/TV”.
For “SPARC113_mp4_(D)E10: SEQ ID NO: 30, SPARC residues 113-127 conjugated via 4 minipegs with 10 glutamic acids (H[dE][dE][dE][dE][dE][dE][dE][dE][dE][dE][mp4″]TLEGTKKGHKLHLDY)”, in assay [1] (setting [3]), the “BV (bone volume)” value was “raises bone mineralization” and the BV/TV entry was “raises bone density”. Also, in assay [2] (setting [4]), the “Max load (peak load)” value was “raises bone strength” and the Work to fracture entry is “raises bone strength”.
With “BFP-D10: SEQ ID NO: 1, bone forming peptide conjugated with 10 aspartate acids: DDDDDDDDDDGQGFSYPYKAVFSTQ (BFP D10)”, in assay [1] (setting [5]), the BV/TV entry was “dose dependent manner” and the TbSp entry is “dose dependent manner”. Also, in assay [2] (after 2 weeks, 100 nmol/day (100×), compared to PBS), the “Peak load of fractured femurs” value is on record as “obtained the maximum peak load”.
“substance P D10: SEQ ID NO: 4, substance P with 4 mini PEG linker and conjugated with 10 aspartate acids (DDDDDDDDDDRPKPQQFFGLM; 4 mini PEG linker; substance P 4 mini PEG D10 with; (10)..(11) 4 mini PEG linker)”: the BV/TV result in assay [1] (setting [6]) was “dose dependent manner”. Further, the “Peak load (max load) of healed femur” value in assay [2] (4 weeks, printed dose 0×) is 30-35 Newtons.
For “P3_mp4_(D)E10: SEQ ID NO: 29, P3 fragment of bone sialoprotein followed by a 4 minipeg spacer and 10 (D) glutamic acids (HYESENGEPRGDNYRAYEEEEEEEEEE; 4 minipeg spacer; D-glutamic acids; P3_mp4_e10)”, in assay [1] (setting [7]), the “BV (bone volume)” value is recorded as “raises bone mineralization” and the BV/TV entry was “raises bone density”. Further, in assay [2] (setting [8]), the “Max load (peak load)” value is “raises bone strength” and the Work to fracture result is “raises bone strength”.
For “P-15_(D)E10: SEQ ID NO: 22, P15 collagen fragment conjugated with 10 glutamic acids (HGTPGPQGIAGQRGVV[dE][dE][dE][dE][dE][dE][dE][dE][dE][dE])”, in assay [1] (setting [9]), the BV/TV entry is listed as “raises bone density”. For the same substance, in assay [2] (setting [9]), the “Max load (peak load)” value is “raises bone strength”.
With “PHSRN_mp4_(D)E10: SEQ ID NO: 28, fibronectin peptide PHSRN with (D)e10 targeting ligand attached to N terminus via minipeg spacer (H[dE][dE][dE][dE][dE][dE][dE][dE][dE][dE][mp4″]PHSRN)”, in assay [1] (setting [3]), the “BV (bone volume)” value is listed as “raises bone mineralization” and the BV/TV result is given as “raises bone density”. Also, in assay [2] (setting [4]), the “Max load (peak load)” value is on record as “raises bone strength” and the Work to fracture entry is “raises bone strength”.
As to “CBM D10: SEQ ID NO: 9, collagen binding motif of osteopontin conjugated with 10 aspartate acids”, in assay [1] (setting [9]), the BV/TV entry is recorded as “dose dependent manner”.
As to “CBD_MP4_(D)E10: SEQ ID NO: 32, 1-28 of osteopontin followed by 4 peg 2 spacers followed by ten d glutamic acids (HNGVFKYRPRYYLYKHAYFYPHLKRFPVQEEEEEEEEEE; 4 PEG2 spacers; D-glutamic acids; CBD _MP4_e10)”, in assay [1] (setting [10]), the BV/TV entry is “raises bone density” and the “Tbth (trabecular thickness)” value is on record as “raises bone quality”. Also, the Work to fracture result in assay [2] (setting [11]) is “improves bone strength”.
On to “LN2_P3_mp4_(D)E10: SEQ ID NO: 27, laminin a2 motif DLTIDDSYWYRI with N terminally attached minipeg 4 spacer and targeting ligand (H[dE][dE][dE][dE][dE][dE][dE][dE][dE][dE][mp4″]DLTIDDSYWYRI)”, for which, in assay [1] (setting [3]), the “BV (bone volume)” value is “raises bone mineralization” and the BV/TV result is reported as “raises bone density”. For the same substance, in assay [2] (setting [4]), the “Max load (peak load)” value is recorded as “raises bone strength” and the Work to fracture entry was “raises bone strength”.
Regarding “IKVAV_mp4_(D)E10: SEQ ID NO: 26, laminin fragment IKVAV conjugated via 4 minipegs with 10 glutamic acids (H[dE][dE][dE][dE][dE][dE][dE][dE][dE][dE][minipeg][minipeg][minipeg][minipeg]GQAASIKVAVSADR)”, in assay [1] (setting [9]), the BV/TV entry is given as “raises bone density”. Besides, the “BV (bone volume)” value in assay [1] (3 weeks, 0.1, 1 and 10 nmol daily s.c., n=5) is listed as “raises bone mineralization”. Moreover, in assay [2] (setting [9]), the “Max load (peak load)” value was “raises bone strength” and the Work to fracture entry is recorded as “raises bone strength”.
On to “DGEA_mp4_(D)E10: SEQ ID NO: 24, DGEA with Serine and Proline on C terminus, 4 minipeg spacers and ten d glutamic acids (H[dE][dE][dE][dE][dE][dE][dE][dE][dE][dE][minipeg][minipeg][minipeg][minipeg]DGEASP)”, for which, in assay [1] (setting [10]), the “BV (bone volume)” value was “raises bone mineralization” and the BV/TV entry is “raises bone density”. In addition, in assay [2] (setting [11]), the “Max load (peak load)” value was “raises bone strength” and the Work to fracture result is listed as “raises bone strength”.
Turning to “CNP D10: SEQ ID NO: 7, C-type Natriuretic peptide conjugated with 10 aspartate acids (HDDDDDDDDDDGLSKGCFGLKLDRIGSMSGLGC; disulfide 17-33)”, in assay [1] (4 weeks, 1 and 10 nmol/day), the BV/TV result is recorded as “dose dependent manner”.
For “CTC_peg10_(D)E10: SEQ ID NO: 20, chemotactic collagen fragment CTC linked via polyethylene glycol 10 to 10 (D) glutamic acids (H[dE][dE][dE][dE][dE][dE][dE][dE][dE][dE][PEG10′]IAGVGGEKSGGF)”, the BV/TV result in assay [1] (setting [9]) is “raises bone density”. For the same substance, in assay [2] (setting [11]), the “Max load (peak load)” value is “improves bone strength”.
As for “Ghrelin-D10: SEQ ID NO: 5, Ghrelin D10 with Ser-3 replaced with diaminopropionic acid (HG[Dap]FLSPEHQKAQQRKESKKPPAKLQPRDDDDDDDDDD; ends and bridges not checked)”, the BV/TV entry in assay [1] (setting [6]) was “dose dependent manner”.
For the substance “MGF D10: SEQ ID NO: 11, Mechano-growth factor with 10 aspartate acids: DDDDDDDDDDYQPPSTNKNTKSQRRKGSTFEEHK (Mechano-growth factor (MGF) D10, an IGF-I fragment)”, in assay [1] (4 weeks, 1 and 10 nmol/day), the BV/TV result is reported as “dose dependent manner”.
For the substance “pBMP9 D10: SEQ ID NO: 6, peptide from knuckle epitope of human BMP-9 targeted with D10 (CGGKVGKACCVPTKLSPISVLYK[mp4″]DDDDDDDDDD; cysteine pairing not given here)”, in assay [1] (setting [6]), the “BV (bone volume)” value is given as “dose dependent manner” and the BV/TV entry was “dose dependent manner”.
“OGP-D10: SEQ ID NO: 2, osteogenic growth peptide conjugated with 10 aspartate acids: DDDDDDDDDDALKRQGRTLYGFGG (OGP D10)”: in assay [1] (2 weeks, 1 and 100 nmol/day), the BV/TV entry is “dose dependent manner”, the TbSp result was “dose dependent manner” and the TbTh entry was “dose dependent manner”.
For the substance “Preptin D10: SEQ ID NO: 3, Preptin conjugated with 10 aspartate acids (HDVSTSQAVLPDDFPRYDDDDDDDDDD; Preptin D10)”, in assay [1] (setting [5]), the “BV (bone volume)” value is given as “dose dependent manner”, the BV/TV entry was “dose dependent manner” and the TbTh entry is reported as “dose dependent manner”.
Regarding “VIP D10: SEQ ID NO: 8, Vasoactive intestinal peptide conjugated with D10 (HHSDAVFTDNYTRLRKQMAVKKYLNSILNDDDDDDDDDD; Vasoactive intestinal peptide with D10 (VIP D10))”, in assay [1] (4 weeks, 1 nmol/day), the BV/TV result is “healing was reflected as BV/TV” and the TbTh result was “healing was reflected”.
Regarding “P4 D10: SEQ ID NO: 10, P4 (knuckle epitope fragment of hBMP-2) conjugated with 10 aspartate acids (HKIPKASSVPTELSAISTLYLDDDDDDDDDD; P4 D10-a BMP2 fragment)”, the “BV (bone volume)” value in assay [1] (4 weeks, 1 nmol/day) is listed as “healing was reflected”. Further, in assay [1] (4 weeks, 1 and 10 nmol/day), the BV/TV result is listed as “dose dependent manner”.

Values taken from patent US20210213135A1 (Purdue Research Foundation, priority 2018, published 2021).
